The values that follow are results of earlier work, collected in patent US20240350409A1, “TRANSDERMAL DELIVERY FORMULATIONS AND METHODS FOR THE MANUFACTURE THEREOF” (LifeActive, Inc., priority 2023, published 2024).

The conditions of this data set: in H2O at ~15-20° C.; weak organic acids.

Turning to Maleic Acid, the pKa2 is reported as 6.07.

Take Citric Acid: the pKa3 is reported as 6.40.
